Source: ChEMBL document CHEMBL3885861, “Open TG-GATES”

Species: Rattus norvegicus
Assay: Open TG-GATES - Regimen: Single
Format: toxicity, organism-based, Sprague-Dawley
Design: regimen Single, gender Male, age 6 weeks
Details: in vivo, po, 100 mg/kg, route gavage, dose level Low; for APTT / Bas / Eos / Fbg / Hb / Ht / Lym / MCV / Mono / Neu / PT / Plat / RBC / Ret / WBC / MCH / MCHC: tissue Blood; for KIDNEY_L / KIDNEY_R / KIDNEY_TOTAL: tissue Kidney; for LIVER: tissue Liver; for ALP / ALT / AST / BUN / CRE / Ca / DBIL / GLC / IP / K / LDH / Na / PL / RALB / TBIL / TC / TG / TP / gamma-GTP: tissue Plasma

## O=C(O)c1cn(C2CC2)c2cc(N3CCNCC3)c(F)cc2c1=O [CIPROFLOXACIN]
3 h
  TERMINAL_BW: 185.5 g
  APTT: 16.8 s
  Bas: 0%
  Eos: 0.8%
  Fbg: 213 mg/dL
  Hb: 12.9 g/dL
  Ht: 38.6%
  Lym: 78.4%
  MCV: 67.5 fL
  Mono: 8.4%
  Neu: 12.8%
  PT: 12.3 s
  Plat: 104.3 x10_4/uL
  RBC: 572.8 x10_4/ul
  Ret: 10.8%
  WBC: 106 x10_2/uL
  KIDNEY_L: 0.8 g
  KIDNEY_R: 0.9 g
  KIDNEY_TOTAL: 1.7 g
  LIVER: 9.1 g
  ALP: 856.2 IU/L
  ALT: 35 IU/L
  AST: 68.6 IU/L
  BUN: 12.4 mg/dL
  CRE: 0.5 mg/dL
  Ca: 11.2 mg/dL
  DBIL: 0.018 mg/dL
  GLC: 192 mg/dL
  IP: 9.8 mg/dL
  K: 4.9 meq/L
  LDH: 81.4 IU/L
  Na: 139 meq/L
  PL: 144.4 mg/dL
  RALB: 3.7 g/dL
  TBIL: 0.4 mg/dL
  TC: 84.6 mg/dL
  TG: 45.6 mg/dL
  TP: 5.5 g/dL
  gamma-GTP: 1.4 IU/L
6 h
  TERMINAL_BW: 179.2 g
  APTT: 17.2 s
  Bas: 0%
  Eos: 0.4%
  Fbg: 216.6 mg/dL
  Hb: 13 g/dL
  Lym: 73%
  MCH: 21.4 pg
  MCHC: 33.2%
  MCV: 64.5 fL
  Mono: 6%
  PT: 12.4 s
  Plat: 102.1 x10_4/uL
  RBC: 608.4 x10_4/ul
  Ret: 10.5%
  WBC: 119.3 x10_2/uL
  KIDNEY_L: 0.9 g
  KIDNEY_R: 0.9 g
  KIDNEY_TOTAL: 1.7 g
  LIVER: 8.1 g
  ALP: 779.4 IU/L
  ALT: 33.6 IU/L
  AST: 70.4 IU/L
  BUN: 10.8 mg/dL
  CRE: 0.5 mg/dL
  Ca: 11.4 mg/dL
  DBIL: 0.05 mg/dL
  GLC: 182.4 mg/dL
  IP: 10.3 mg/dL
  K: 5.4 meq/L
  LDH: 98 IU/L
  Na: 138.8 meq/L
  PL: 128.2 mg/dL
  RALB: 3.9 g/dL
  TBIL: 0.3 mg/dL
  TC: 71.4 mg/dL
  TG: 39.8 mg/dL
  TP: 5.6 g/dL
  gamma-GTP: 1 IU/L
9 h
  TERMINAL_BW: 174.2 g
  APTT: 16.2 s
  Bas: 0%
  Eos: 1%
  Fbg: 215 mg/dL
  Hb: 13.5 g/dL
  Lym: 77.2%
  MCV: 67.9 fL
  Mono: 5.2%
  Neu: 17%
  PT: 11.5 s
  Plat: 100.5 x10_4/uL
  RBC: 605.8 x10_4/ul
  Ret: 9.9%
  WBC: 77 x10_2/uL
  KIDNEY_L: 0.9 g
  KIDNEY_R: 0.9 g
  KIDNEY_TOTAL: 1.8 g
  LIVER: 7.3 g
  ALP: 813.2 IU/L
  ALT: 33.6 IU/L
  AST: 68.8 IU/L
  BUN: 11 mg/dL
  CRE: 0.5 mg/dL
  Ca: 10.9 mg/dL
  DBIL: 0.066 mg/dL
  GLC: 190 mg/dL
  IP: 11.5 mg/dL
  K: 4.9 meq/L
  LDH: 94.2 IU/L
  Na: 139.6 meq/L
  PL: 142.4 mg/dL
  RALB: 3.8 g/dL
  TBIL: 0.2 mg/dL
  TC: 88.4 mg/dL
  TP: 5.6 g/dL
  gamma-GTP: 1.4 IU/L
24 h
  TERMINAL_BW: 191.7 g
  Bas: 0%
  Eos: 1%
  Fbg: 218 mg/dL
  Hb: 13.5 g/dL
  Ht: 40.5%
  Lym: 77%
  MCH: 22.1 pg
  MCHC: 33.4%
  MCV: 66.3 fL
  Mono: 7%
  Neu: 15%
  Plat: 105.4 x10_4/uL
  RBC: 610.4 x10_4/ul
  Ret: 9.2%
  WBC: 102.8 x10_2/uL
  KIDNEY_L: 0.9 g
  KIDNEY_R: 0.9 g
  KIDNEY_TOTAL: 1.7 g
  LIVER: 8 g
  ALP: 953.6 IU/L
  ALT: 40.4 IU/L
  AST: 74.6 IU/L
  BUN: 17.2 mg/dL
  CRE: 0.5 mg/dL
  Ca: 11.2 mg/dL
  DBIL: 0.058 mg/dL
  GLC: 191.6 mg/dL
  IP: 9.2 mg/dL
  K: 4.7 meq/L
  Na: 139.4 meq/L
  PL: 161.4 mg/dL
  RALB: 3.8 g/dL
  TBIL: 0.3 mg/dL
  TC: 100 mg/dL
  TP: 5.9 g/dL
